Measured values: patent US8753833B2, “Copolymer assay” (Momenta Pharmaceuticals, Inc., priority 2007, dated 2014)

Assays:
THP-1 cells [1] = experiment: THP-1 copolymer assay: secretion of IFN-γ-regulated chemokines, cytokines, receptors and proteases, Searchlight multiplex analysis; type: cell-based, human; conditions: for I-TAC / IP-10 / MIG: IFN-γ 10 ng/ml, 22-24 hours, 12 samples
Description: THP-1 cells (ATCC, TIB-202) were received from the American Type Culture Collection (ATCC). […] Cells were grown in complete growth medium and incubated in a 37° C., 5% CO2 incubator.
Assay medium was prepared fresh the day of the assay. The assay medium consisted of 2 mM Glutamax I Supplement (Invitrogen, 35050-79) in X-VIVO 15 serum-free medium (Cambrex, 04-418Q). These reagents were filtered in a 0.2 micron cellulose acetate filter unit (Nalgene, 156-4020). After filtration, the bottle was covered with foil to protect the medium from light.
COPAXONE® (glatiramer acetate; Teva Pharmaceuticals) was stored in the manufacturer's syringe at 4° C. Samples were prepared at a 2× concentration in the 2×IFN-γ assay medium in sterile, siliconized microfuge tubes. Final concentrations from 0 μg/ml to 400 μg/ml were tested in the assay.
Human IFN-γ (R&D Systems, 285-IF-100) was reconstituted with sterile 0.2% bovine serum albumin (BSA) in phosphate-buffered saline (PBS) (Chemicon, 3225-80).
On the day prior to assay, THP-1 cells were seeded at 2×10^5 cells/ml (20 ml final volume). These cells were harvested by centrifugation at 400×g, 5 min, 18° C. Cells were washed once with assay medium (without IFN-γ) and resuspended in assay medium (without IFN-γ) and counted. THP-1 cells were resuspended at 5×10^5 cells/ml in assay medium (with 0, 1, 10, and 100 ng/ml final concentration of IFN-γ). […] Assay plates were incubated for 0 to 23 hours in a 37° C., 5% CO2 incubator.
Conditioned medium was harvested into non-sterile, siliconized tubes. Tubes were centrifuged at 400×g, 5 min, 4° C. The supernatants were transferred to new, siliconized tubes and flash frozen in liquid nitrogen. Frozen conditioned medium was stored at −80° C. until they were submitted for Searchlight multiplex cytokine analysis (Pierce Endogen, Woburn, Mass.).

THP-1 cells [2] = experiment: as above; type: cell-based, human; conditions: IFN-γ 10 ng/ml, 22-24 hours, 12 samples
[3] = IFNγ + 50 μg/ml I356 over IFNγ alone (10 ng/ml)

For glatiramer acetate [COPAXONE®], the “ICAM1 Fold-increase” value (THP-1 cells [1]; [3]) was 6.0 fold, the “IFNγ Fold-increase” value (THP-1 cells [1]; [3]) was 9.7 fold and the “IL1β Fold-increase” value (THP-1 cells [1]; [3]) was 2.4 fold. For the same substance, the “IL12p70 Fold-increase” value (THP-1 cells [1]; [3]) was 1.9 fold, the “IL-6 Fold-increase” value (THP-1 cells [1]; [3]) was 19.0 fold and the “IL-8 Fold-increase” value (THP-1 cells [1]; [3]) was 8.5 fold. For the same substance, the “IL-10 Fold-increase” value (THP-1 cells [1]; [3]) was 2.0 fold, the “IP10 Fold-increase” value (THP-1 cells [1]; [3]) was 226.3 fold and the “MCP1 Fold-increase” value (THP-1 cells [1]; [3]) was 21.3 fold. For the same substance, the “MDC Fold-increase” value (THP-1 cells [1]; [3]) was 10.6 fold, the “MIP1α Fold-increase” value (THP-1 cells [1]; [3]) was 7.1 fold and the “MMP2 Fold-increase” value (THP-1 cells [1]; [3]) was 5.8 fold. For the same substance, the “MMP9 Fold-increase” value (THP-1 cells [1]; [3]) was 0.2 fold, the “RANTES Fold-increase” value (THP-1 cells [1]; [3]) was 3.6 fold and the “TARC Fold-increase” value (THP-1 cells [1]; [3]) was 3.0 fold. The “TIMP1 Fold-increase” value (THP-1 cells [1]; [3]) was 1.7 fold, the “TNFR1 Fold-increase” value (THP-1 cells [1]; [3]) was 5.2 fold and the “TNFR2 Fold-increase” value (THP-1 cells [1]; [3]) was 3.1 fold. The “TNFα Fold-increase” value (THP-1 cells [1]; [3]) was 1.8 fold, the “Fold induction over baseline by culture medium” value (THP-1 cells [1]; X-VIVO15 serum-free defined medium compared with FBS media) was “highest fold induction over baseline” and the I-TAC (THP-1 cells [1]; [GA] 0.78 μg/ml) was 16.5 pg/mL. For the same substance, the IP-10 (THP-1 cells [1]; [GA] 0.78 μg/ml) was 259.2 pg/mL, the I-TAC (THP-1 cells [1]; [GA] 1.56 μg/ml) was 42.1 pg/mL and the IP-10 (THP-1 cells [1]; [GA] 1.56 μg/ml) was 483.7 pg/mL. It also gave an I-TAC (THP-1 cells [1]; [GA] 3.13 μg/ml) of 82.6 pg/mL, an IP-10 (THP-1 cells [1]; [GA] 3.13 μg/ml) of 580.8 pg/mL and an I-TAC (THP-1 cells [1]; [GA] 6.25 μg/ml) of 105.9 pg/mL. The IP-10 (THP-1 cells [1]; [GA] 6.25 μg/ml) was 581.4 pg/mL, the MIG (THP-1 cells [1]; [GA] 6.25 μg/ml) was 2704.5 pg/mL and the I-TAC (THP-1 cells [1]; [GA] 12.5 μg/ml) was 179.2 pg/mL. The MIG (THP-1 cells [1]; [GA] 12.5 μg/ml) was 3608 pg/mL, the IP-10 (THP-1 cells [1]; [GA] 25 μg/ml) was 829 pg/mL and the MIG (THP-1 cells [1]; [GA] 25 μg/ml) was 4480.6 pg/mL. The I-TAC (THP-1 cells [1]; [GA] 50 μg/ml) was 532.6 pg/mL, the IP-10 (THP-1 cells [1]; [GA] 50 μg/ml) was 2150.8 pg/mL and the MIG (THP-1 cells [1]; [GA] 50 μg/ml) was 13771.2 pg/mL. The I-TAC (THP-1 cells [1]; [GA] 100 μg/ml) was 2444 pg/mL, the IP-10 (THP-1 cells [1]; [GA] 100 μg/ml) was 12865.1 pg/mL and the MIG (THP-1 cells [1]; [GA] 100 μg/ml) was 45353.3 pg/mL. The I-TAC (THP-1 cells [1]; [GA] 200 μg/ml) was 2091.2 pg/mL, the MIG (THP-1 cells [1]; [GA] 200 μg/ml) was 37897.5 pg/mL and the I-TAC (THP-1 cells [1]; [GA] 400 μg/ml) was 1560.5 pg/mL. For the same substance, the IP-10 (THP-1 cells [1]; [GA] 400 μg/ml) was 6111.3 pg/mL, the “IFN-γ levels with COPAXONE treatment” value (THP-1 cells [1]; measured at 24 hours) was “concentration-dependent increase” and the “Secretion of IP-10, MIG, I-TAC and IFN-γ in all medium conditions” value (THP-1 cells [1]; various concentrations of FBS or X-VIVO15 serum-free medium) was “robust secretion”. The MIG (THP-1 cells [2]; [GA] 0.78 μg/ml) was 149.7 pg/mL, the MIG (THP-1 cells [2]; [GA] 1.56 μg/ml) was 345.6 pg/mL and the MIG (THP-1 cells [2]; [GA] 3.13 μg/ml) was 933.6 pg/mL. For the same substance, the IP-10 (THP-1 cells [2]; [GA] 12.5 μg/ml) was 782.6 pg/mL, the I-TAC (THP-1 cells [2]; [GA] 25 μg/ml) was 247.1 pg/mL and the IP-10 (THP-1 cells [2]; [GA] 200 μg/ml) was 10899 pg/mL. It also gave an MIG (THP-1 cells [2]; [GA] 400 μg/ml) of 27574.5 pg/mL.
